Test results as given in US20220218831A1, “DEGRADATION OF AURORA KINASE (AURK) BY CONJUGATION OF AURK INHIBITORS WITH E3 LIGASE LIGAND” (Nemucore Medical Innovations, Inc., priority 2019, published 2022).

Test: Combination of the free target ligand of Formula II (GSK-1070916) with JQ1 (FIG. 3)
Details: GSK-1070916 combined with JQ1; FIG. 3 legend, no model or method printed

For CCn1cc(-c2ccnc3[nH]c(-c4cccc(CN(C)C)c4)cc23)c(-c2ccc(NC(=O)N(C)C)cc2)n1 [GSK-1070916], the “effect of combination with JQ1” value was “synergistic effect”.
